Test results as given in paper PMC10683023, “Targeting Glial Cells by Organic Anion-Transporting Polypeptide 1C1 (OATP1C1)-Utilizing L-Thyroxine-Derived Prodrugs” (Journal of Medicinal Chemistry, 2023).

Key:
mouse primary astrocytes = assay: Concentration-dependent cellular uptake into mouse primary astrocytes; type: cell-based; conditions: 5–400 μM
Method: The mouse primary astrocytes were isolated from neonatal pups (P0-2) of wild-type mice (C57BL/6JOlaHsd) as previously described, in compliance with the European Commission Directive 2010/63/EU and approved by the Institutional Animal Care and Use Committee of the University of Eastern Finland (Animal Usage Plan numbers: EKS-006-2019).[37] Neonatal pups were decapitated, and their brains were collected in an ice-cold HBSS buffer. After tissue dissociation and washing, cells were plated on poly-L-lysine-coated flasks and cultured in DMEM supplemented with FBS, L-glutamine, and penicillin/streptomycin (50 μg/mL) for 24 h. Debris and dead cells were removed by DPBS rinsing. After 7 days, microglial cells were removed, and the remaining astrocytic monolayer was collected by trypsinization using 0.05% trypsin-ethylenediaminetetraacetic acid (EDTA) (Gibco), pelleted, and stored at −80 °C for subsequent analysis. For the cell uptake experiments, the astrocytes were seeded on 24-well plates with a density of 10^4 cells/well 3 days before the experiments.
(§1) After removal of the culture medium, U-87MG human glioma cells and mouse primary astrocytes were carefully washed with prewarmed Hank’s balanced salt solution (HBSS) containing 125.0 mM NaCl (or choline chloride in Na^+ free conditions), 4.8 mM KCl, 1.2 mM MgSO4, 1.2 mM KH2PO4, 1.3 mM CaCl2, 5.6 mM glucose, and 25.0 mM 4-(2-hydroxyethyl)piperazine-1-ethanesulfonic acid (HEPES) with the pH adjusted to either 7.4 or pH 8.5 with 1 M NaOH (or KOH in sodium-free conditions). In the experiments at lower pH (4.5–6.5), 25.0 mM HEPES was replaced by 2-(N-morpholino) ethanesulfonic acid (MES), and the pH was adjusted to 4.5, 5.5, and 6.5 by 1.0 M NaOH. Preincubation was done with 500 μL of prewarmed HBSS at 37 °C for 10 min before adding the substrate for the uptake experiments. The functionality of OATP1C1 in human glioma U-87MG cells was studied with a known substrate (L-thyroxine, T4) and of oatp1a4, 1a5, and 1a6 in mouse primary astrocytes with [6,7-^3H(N)]-estrone-3-sulfate (ES) by incubating the uptake solution (250 μL in HBSS) consisting of 5–400 μM of the substrate at 37 °C for 30 min. After incubation, the uptake was stopped by adding 500 μL of ice-cold HBSS, and the cells were washed two times with ice-cold HBSS (2 × 500 μL). The cells were then lysed with 500 μL of 0.1 M NaOH (60 min), the lysate was neutralized, and the protein was precipitated with acidic acetonitrile (ACN with 4.8% formic acid). The supernatants were analyzed by the high-performance liquid chromatography (HPLC) methods described below (T4) or by using a liquid scintillation counter (MicroBeta2 counter, PerkinElmer, Waltham, MA) (ES). The concentrations of T4 and ES were calculated from the spiked standard curve and normalized with the protein concentrations. The protein concentrations on each plate were determined as a mean of three samples by Bio-Rad Protein Assay, based on the Bradford dye-binding method, using bovine serum albumin (BSA) as a standard protein and measuring the absorbance (595 nm) by a multiplate reader (EnVision, PerkinElmer, Inc., Waltham, MA). The OATP-mediated uptake was confirmed by changing the pH of the uptake buffer in the absence of sodium ions, and in the case of OATP1C1 in human U-87MG cells, the uptake of T4 (100 μM) was studied in the presence of competing OATP1C1-ligands, diclofenac and flufenamic acid (100 μM), and in the case of oatp1a4/1a5/1a6 in mouse primary astrocytes, the uptake of ES (100 μM) was studied in the presence of competing OATO1A2-ligand, naringin (100 μM).
Cellular uptake of prodrugs 1–8 was studied as described for L-thyroxine above by adding compounds at a concentration of 5–400 μM in prewarmed HBSS buffer (250 μL) on the cell layer and incubating at 37 °C for 30 min (uptake was linear with all compounds up to 30 min). Subsequently, the cells were washed three times with ice-cold HBSS and lysed with 500 μL of 0.1 M NaOH (60 min). […]

[1] = tested on: human U-87MG glioma cells; assay: Concentration-dependent cellular uptake into human U-87MG glioma cells; type: cell-based; conditions: 5–400 μM, 30 min, 37 °C
Method: U-87MG (ATCC, HTB-14, unknown origin) was purchased from Lonza (Basel, Switzerland). The cells were cultured in standard conditions (37 °C, 5% CO2) using Dulbecco’s modified Eagle’s medium (DMEM) supplemented with L-glutamine (2.0 mM), heat-inactivated fetal bovine serum (FBS) (10%), penicillin (50 U/mL), and streptomycin (50 μg/mL). U-87MG cells (passages 8–25) were seeded at a density of 1 × 10^5 cells/well onto 24-well plates and used for the uptake experiments 1 day after seeding. All of the studies were carried out as three biological replicates from the same cell passage.
as §1
Cellular uptake of prodrugs 1–8 was studied as described for L-thyroxine above by adding compounds at a concentration of 5–400 μM in prewarmed HBSS buffer (250 μL) on the cell layer and incubating at 37 °C for 30 min (uptake was linear with all compounds up to 30 min). Subsequently, the cells were washed three times with ice-cold HBSS and lysed with 500 μL of 0.1 M NaOH (60 min). The lysate was neutralized; the proteins were precipitated with acidic ACN (containing 4.8% formic acid), and the supernatants were analyzed by the (HPLC) methods described below. The concentrations of each prodrug normalized to protein concentration were calculated from the standard curve prepared by spiking known concentrations of compounds into ACN-precipitated cell lysate. […]

[2] = Enzymatic bioconversion in mouse serum; type: in vitro ADME; conditions: after 5 h incubation, 37 °C, mean ± SD, n = 3
Method: (§2) The rates of bioactivation of the prodrugs 1–8 in mouse and human liver S9 fractions, as well as in mouse primary astrocyte–microglia homogenate, were determined at +37 °C. The incubation mixtures were prepared by mixing liver S9 subcellular fraction or brain cell homogenate (final protein concentration 1.0 mg/mL) with isotonic Tris–HCl buffer (pH 7.4) and 10 mM prodrug stock solution in DMSO (the initial concentration of prodrugs was 100 μM and the DMSO concentration was […]). The mixture was incubated for 5 h, and the samples ([…]) were withdrawn at appropriate intervals. The enzymatic reaction was terminated by the addition of ice-cold acetonitrile ([…]), and the samples were centrifuged for 5 min at 12 000 rpm at room temperature and kept on ice until the supernatants were analyzed by the HPLC method described below. In blank reactions, the S9 fractions were replaced with the same volume of buffer. The pseudo-first-order half-lives (t1/2) for the rates of bioconversion of the prodrugs were calculated from the slope of the linear portion of the plotted logarithm of the remaining prodrug concentration versus time. The rates of bioactivation of prodrugs 1–8 in human plasma and mouse serum were determined at 37 °C as above by adding 10 mM stock solution of the prodrug to plasma/serum in a ratio of 1:10 and analyzed similarly to the samples from S9 fractions.
(§3) The amount of prodrug 1–8 was determined by the HPLC system, which consisted of an Agilent 1100 binary pump (Agilent Technologies Inc., Wilmington, DE), an 1100 micro vacuum degasser, an HP 1050 Autosampler, and an HP 1050 variable wavelength detector, operated at 230–240 nm. The chromatographic separations were achieved on an Agilent Zorbax SB-C18 analytical column (4.4 mm × 150 mm, 5 μm) (Agilent Technologies Inc., Wilmington, DE) by using isocratic elution of water containing 0.1% formic acid (pH ca. 3.0) and acetonitrile containing 0.1% formic acid with ratios of 50:50, 30:70, 40:60, 50:50, 50:50, 40:60, 40:60, and 30:70 (v/v), respectively, for prodrug 1–8. […] The lower limit of quantification for prodrugs 1–8 was 0.20 μM. These HPLC methods were also accurate, precise, and selective over the range of 0.5–20 μM.

[3] = Enzymatic bioconversion in mouse liver S9 fraction; type: in vitro ADME; conditions: after 5 h incubation, 100 μM prodrug, 37 °C, mean ± SD, n = 3
Method: as §2, §3

[4] = Enzymatic bioconversion in human liver S9 fraction; type: in vitro ADME; conditions: after 5 h incubation, 100 μM prodrug, 37 °C, mean ± SD, n = 3
Method: as §2, §3

[5] = Enzymatic bioconversion in human plasma; type: in vitro ADME; conditions: after 5 h incubation, 37 °C, mean ± SD, n = 3
Method: as §2, §3

[6] = Enzymatic bioconversion in mouse primary astrocyte–microglia homogenate; type: in vitro ADME; conditions: after 5 h incubation, 100 μM prodrug, 37 °C, mean ± SD, n = 3
Method: as §2, §3

Structure (SMILES)	Km (mouse primary astrocytes; 30 min, 37 °C)	Vmax, ES uptake into mouse primary astrocytes (mouse primary astrocytes; Figure 2B)	Vmax, cellular uptake, astrocytes (mouse primary astrocytes; 30 min, 37 °C)	Km [1]	Vmax, cellular uptake, U-87MG [1]	Enzymatic stability, remaining percentage, mouse serum [2]	Enzymatic stability, remaining percentage, mouse liver S9 [3]	Km ([1]; listed as PD1)	Enzymatic stability, remaining percentage, human liver S9 [4]	Enzymatic stability, remaining percentage, human plasma [5]	Enzymatic stability, remaining percentage, mouse brain cell homogenate [6]
C[C@]12CC[C@@H]3c4ccc(OS(=O)(=O)O)cc4CC[C@H]3[C@@H]1CCC2=O [ES, [6,7-^3H(N)]-estrone-3-sulfate, reference compound]	703 ± 227 µM	0.22 ± 0.05 pmol/min/mg	–	–	–	–	–	–	–	–	–
N[C@@H](Cc1cc(I)c(Oc2cc(I)c(O)c(I)c2)c(I)c1)C(=O)O [L-Thyroxine T4, L-thyroxine]	1250 ± 230 µM	–	9.7 ± 6.1 nmol/min/mg	111 ± 32 µM	8.86 ± 1.33 nmol/min/mg	–	–	–	–	–	–
CC(C(=O)Oc1c(I)cc(C[C@H](N)C(=O)O)cc1I)c1cccc(C(=O)c2ccccc2)c1 (mixture of isomers) [Prodrug 1, (2S)-2-Amino-3-(4-((2-(3-benzoylphenyl)propanoyl)oxy)-3,5-diiodophenyl)propanoic acid]	–	–	–	174 µM	–	94.32 ± 1.27%	74.30 ± 7.50%	~174 µM	78.13 ± 2.17%	92.01 ± 5.02%	85.76 ± 2.74%
